Assay results: patent US10040781B2, “Tank-binding kinase inhibitor compounds” (Gilead Sciences, Inc., priority 2014, dated 2018)

molecular target: hJAK2 (Homo sapiens (Human), UniProt O60674); test: hJAK2 LANCE TR-FRET enzymatic assay; type: biochemical; details: read-out: JAK2 IC50
Sequence (O60674 whole entry): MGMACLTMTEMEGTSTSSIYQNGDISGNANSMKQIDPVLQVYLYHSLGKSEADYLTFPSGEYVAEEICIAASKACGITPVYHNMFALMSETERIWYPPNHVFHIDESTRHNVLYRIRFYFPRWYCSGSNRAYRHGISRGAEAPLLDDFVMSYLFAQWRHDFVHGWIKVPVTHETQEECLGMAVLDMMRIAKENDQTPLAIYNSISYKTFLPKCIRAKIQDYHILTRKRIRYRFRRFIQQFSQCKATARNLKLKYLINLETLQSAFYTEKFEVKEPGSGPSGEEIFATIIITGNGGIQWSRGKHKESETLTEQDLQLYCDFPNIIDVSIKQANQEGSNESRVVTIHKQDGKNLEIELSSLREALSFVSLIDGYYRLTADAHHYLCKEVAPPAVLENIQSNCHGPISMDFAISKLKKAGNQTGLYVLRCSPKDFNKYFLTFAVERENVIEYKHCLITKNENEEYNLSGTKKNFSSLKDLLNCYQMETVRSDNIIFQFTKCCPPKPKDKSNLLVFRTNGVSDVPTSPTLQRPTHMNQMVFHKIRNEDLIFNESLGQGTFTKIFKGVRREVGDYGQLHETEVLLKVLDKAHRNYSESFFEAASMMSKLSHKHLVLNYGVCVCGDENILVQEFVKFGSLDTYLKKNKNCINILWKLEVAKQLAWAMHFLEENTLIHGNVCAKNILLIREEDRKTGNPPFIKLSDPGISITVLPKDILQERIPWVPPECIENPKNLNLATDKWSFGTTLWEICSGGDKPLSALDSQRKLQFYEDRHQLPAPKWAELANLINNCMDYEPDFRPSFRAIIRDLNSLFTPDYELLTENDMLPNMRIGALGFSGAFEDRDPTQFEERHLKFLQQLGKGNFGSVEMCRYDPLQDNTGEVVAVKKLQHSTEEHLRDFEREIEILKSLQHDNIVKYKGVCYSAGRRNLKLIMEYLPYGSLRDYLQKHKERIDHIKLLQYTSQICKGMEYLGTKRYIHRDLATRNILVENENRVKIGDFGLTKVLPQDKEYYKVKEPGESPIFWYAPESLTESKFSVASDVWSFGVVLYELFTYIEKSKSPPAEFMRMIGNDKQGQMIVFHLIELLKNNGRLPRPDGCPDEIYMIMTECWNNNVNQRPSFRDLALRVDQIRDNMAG

SMILES | IC50 [nM]
N#Cc1cc(-c2ncnc(Nc3ccc(N4CCN(C5COC5)CC4)cc3)n2)ccc1OC1CCN(C(=O)CO)CC1(F)F (racemic) [Example 151, 2-((3,3-difluoro-1-(2-hydroxyacetyl)piperidin-4-yl)oxy)-5-(4-((4-(4-(oxetan-3-yl)piperazin-1-yl)phenyl)amino)-1,3,5-triazin-2-yl)benzonitrile] | 122
CC1(C)CN(C(=O)CO)CCC1Oc1ccc(-c2ncnc(Nc3ccc(N4CCN(C5COC5)CC4)cc3)n2)cc1C#N (racemic) [Example 174, 2-((1-(2-hydroxyacetyl)-3,3-dimethylpiperidin-4-yl)oxy)-5-(4-((4-(4-(oxetan-3-yl)piperazin-1-yl)phenyl)amino)-1,3,5-triazin-2-yl)benzonitrile] | 160
N#Cc1cc(-c2ncnc(Nc3ccc(N4CCN(C5COC5)CC4)cc3)n2)ccc1O[C@H]1CCN(C(=O)CO)CC1(F)F (single isomer, unassigned) [Example 152] | 75
N#Cc1cc(-c2ncnc(Nc3ccc(N4CCN(C5COC5)CC4)cc3)n2)ccc1O[C@@H]1CCN(C(=O)CO)CC1(F)F (single isomer, unassigned) [Example 153] | 56
CC1(C)CN(C(=O)CO)CC[C@@H]1Oc1ccc(-c2ncnc(Nc3ccc(N4CCN(C5COC5)CC4)cc3)n2)cc1C#N (single isomer, unassigned) [Example 175] | 397
CC1(C)CN(C(=O)CO)CC[C@H]1Oc1ccc(-c2ncnc(Nc3ccc(N4CCN(C5COC5)CC4)cc3)n2)cc1C#N (single isomer, unassigned) [Example 176] | 133
COc1cc(Nc2ncnc(-c3ccc(OC4CCOCC4)c(C#N)c3)n2)ccc1N1CCN(C)CC1 [Example 4, 5-(4-((3-methoxy-4-(4-methylpiperazin-1-yl)phenyl)amino)-1,3,5-triazin-2-yl)-2-((tetrahydro-2H-pyran-4-yl)oxy)benzonitrile] | 53
CN1CCN(c2ccc(Nc3ncnc(-c4ccc(OC5CCOCC5)c(C#N)c4)n3)cc2)CC1 [Example 12, 5-(4-((4-(4-methylpiperazin-1-yl)phenyl)amino)-1,3,5-triazin-2-yl)-2-((tetrahydro-2H-pyran-4-yl)oxy)benzonitrile] | 162
Cc1n[nH]c(C)c1C(=O)N1CC[C@H](Oc2ccc(-c3ncnc(Nc4ccc(N5CCN(C6COC6)CC5)cc4)n3)cc2C#N)[C@H](F)C1 [Example 135, 2-(((3R,4S)-1-(3,5-dimethyl-1H-pyrazole-4-carbonyl)-3-fluoropiperidin-4-yl)oxy)-5-(4-((4-(4-(oxetan-3-yl)piperazin-1-yl)phenyl)amino)-1,3,5-triazin-2-yl)benzonitrile] | 212
N#Cc1cc(-c2ncnc(Nc3ccc(N4CCN(C5COC5)CC4)cc3)n2)ccc1OC1CCN(C(=O)c2ncc[nH]2)CC1(F)F (stereo not drawn) [Example 163, 2-((3,3-difluoro-1-(1H-imidazole-2-carbonyl)piperidin-4-yl)oxy)-5-(4-((4-(4-(oxetan-3-yl)piperazin-1-yl)phenyl)amino)-1,3,5-triazin-2-yl)benzonitrile] | 248
C[C@H](O)C(=O)N1CC[C@@H](Oc2ccc(-c3ncnc(Nc4ccc(N5CCN(C6COC6)CC5)cc4)n3)cc2C#N)[C@H](F)C1 [Example 234, 2-(((3R,4R)-3-fluoro-1-((S)-2-hydroxypropanoyl)piperidin-4-yl)oxy)-5-(4-((4-(4-(oxetan-3-yl)piperazin-1-yl)phenyl)amino)-1,3,5-triazin-2-yl)benzonitrile] | 669
C[C@H](O)C(=O)N1CC[C@H](Oc2ccc(-c3ncnc(Nc4ccc(N5CCN(C6COC6)CC5)cc4)n3)cc2C#N)[C@H](F)C1 [Example 238, 2-(((3R,4S)-3-fluoro-1-((8)-2-hydroxypropanoyl)piperidin-4-yl)oxy)-5-(4-((4-(4-(oxetan-3-yl)piperazin-1-yl)phenyl)amino)-1,3,5-triazin-2-yl)benzonitrile] | 445
N#Cc1cc(-c2ncnc(Nc3ccc(N4CCN(C5COC5)CC4)cc3)n2)ccc1O[C@H]1CCN(C(=O)c2cc(Cl)n[nH]2)C[C@H]1F [Example 324, 2-(((3R,4S)-1-(3-chloro-1H-pyrazole-5-carbonyl)-3-fluoropiperidin-4-yl)oxy)-5-(4-((4-(4-(oxetan-3-yl)piperazin-1-yl)phenyl)amino)-1,3,5-triazin-2-yl)benzonitrile] | 237
C[C@H](O)C(=O)N1CC[C@H](Oc2ccc(-c3ncnc(Nc4ccc(N5CCN(C6COC6)CC5)c(Cl)c4)n3)cc2C#N)[C@H](F)C1 [Example 378, 5-(4-((3-chloro-4-(4-(oxetan-3-yl)piperazin-1-yl)phenyl)amino)-1,3,5-triazin-2-yl)-2-(((3R,4S)-3-fluoro-1-((S)-2-hydroxypropanoyl)piperidin-4-yl)oxy)benzonitrile] | 173
C[C@H]1CN(C2COC2)CCN1c1ccc(Nc2ncnc(-c3ccc(O[C@H]4CCN(C(=O)[C@@H]5CCC(=O)N5)C[C@H]4F)c(C#N)c3)n2)cc1 [Example 381, 2-(((3R,4S)-3-fluoro-1-((S)-5-oxopyrrolidine-2-carbonyl)piperidin-4-yl)oxy)-5-(4-((4-((S)-2-methyl-4-(oxetan-3-yl)piperazin-1-yl)phenyl)amino)-1,3,5-triazin-2-yl)benzonitrile] | ≥ 1000
C[C@H](O)C(=O)N1CC[C@H](Oc2ccc(-c3ncnc(Nc4ccc(O[C@H]5CCN(C6COC6)C[C@H]5F)cc4)n3)cc2C#N)[C@H](F)C1 [Example 401, 2-(((3R,4S)-3-fluoro-1-((S)-2-hydroxypropanoyl)piperidin-4-yl)oxy)-5-(4-((4-(((3R,4S)-3-fluoro-1-(oxetan-3-yl)piperidin-4-yl)oxy)phenyl)amino)-1,3,5-triazin-2-yl)benzonitrile] | ≥ 1000
N#Cc1cc(-c2ncnc(Nc3ccc(N4CCN(C5COC5)CC4)cc3)n2)ccc1O[C@H]1CCN(C(=O)[C@@H]2C[C@@H](O)C(=O)N2)C[C@H]1F [Example 403, 2-(((3R,4S)-3-fluoro-1-((2S,4R)-4-hydroxy-5-oxopyrrolidine-2-carbonyl)piperidin-4-yl)oxy)-5-(4-((4-(4-(oxetan-3-yl)piperazin-1-yl)phenyl)amino)-1,3,5-triazin-2-yl)benzonitrile] | 858
N#Cc1cc(-c2ncnc(Nc3ccc(N4CCN(C5COC5)CC4)cc3)n2)ccc1O[C@H]1CCN(C(=O)[C@@H]2C[C@@H](F)C(=O)N2)C[C@H]1F [Example 405, 2-(((3R,4S)-3-fluoro-1-((2S,4R)-4-fluoro-5-oxopyrrolidine-2-carbonyl)piperidin-4-yl)oxy)-5-(4-((4-(4-(oxetan-3-yl)piperazin-1-yl)phenyl)amino)-1,3,5-triazin-2-yl)benzonitrile] | ≥ 1000
N#Cc1cc(-c2ncnc(Nc3ccc(N4CCN(C5COC5)CC4)cc3)n2)ccc1O[C@H]1CCN(C(=O)[C@@H]2C[C@H](F)C(=O)N2)C[C@H]1F [Example 406, 2-(((3R,4S)-3-fluoro-1-((2S,4S)-4-fluoro-5-oxopyrrolidine-2-carbonyl)piperidin-4-yl)oxy)-5-(4-((4-(4-(oxetan-3-yl)piperazin-1-yl)phenyl)amino)-1,3,5-triazin-2-yl)benzonitrile] | ≥ 1000
N#Cc1cc(-c2ncnc(Nc3ccc(N4CCN(C5COC5)CC4)cc3)n2)ccc1O[C@H]1CCN(C(=O)[C@@H]2C[C@H](O)C(=O)N2)C[C@H]1F [Example 410, 2-(((3R,4S)-3-fluoro-1-((2S,4S)-4-hydroxy-5-oxopyrrolidine-2-carbonyl)piperidin-4-yl)oxy)-5-(4-((4-(4-(oxetan-3-yl)piperazin-1-yl)phenyl)amino)-1,3,5-triazin-2-yl)benzonitrile] | 450

molecular target: TBK1 (Homo sapiens (Human), UniProt Q9UHD2); test: TBK1 TR-FRET enzymatic assay; details: not given;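 further: phosphorylation of a biotinylated Ser/Thr peptide by purified full-length recombinant TBK1, read by TR-FRET after 240 min at 25 °C, IC50 is the geometric mean of at least four runs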
Sequence (Q9UHD2 whole entry): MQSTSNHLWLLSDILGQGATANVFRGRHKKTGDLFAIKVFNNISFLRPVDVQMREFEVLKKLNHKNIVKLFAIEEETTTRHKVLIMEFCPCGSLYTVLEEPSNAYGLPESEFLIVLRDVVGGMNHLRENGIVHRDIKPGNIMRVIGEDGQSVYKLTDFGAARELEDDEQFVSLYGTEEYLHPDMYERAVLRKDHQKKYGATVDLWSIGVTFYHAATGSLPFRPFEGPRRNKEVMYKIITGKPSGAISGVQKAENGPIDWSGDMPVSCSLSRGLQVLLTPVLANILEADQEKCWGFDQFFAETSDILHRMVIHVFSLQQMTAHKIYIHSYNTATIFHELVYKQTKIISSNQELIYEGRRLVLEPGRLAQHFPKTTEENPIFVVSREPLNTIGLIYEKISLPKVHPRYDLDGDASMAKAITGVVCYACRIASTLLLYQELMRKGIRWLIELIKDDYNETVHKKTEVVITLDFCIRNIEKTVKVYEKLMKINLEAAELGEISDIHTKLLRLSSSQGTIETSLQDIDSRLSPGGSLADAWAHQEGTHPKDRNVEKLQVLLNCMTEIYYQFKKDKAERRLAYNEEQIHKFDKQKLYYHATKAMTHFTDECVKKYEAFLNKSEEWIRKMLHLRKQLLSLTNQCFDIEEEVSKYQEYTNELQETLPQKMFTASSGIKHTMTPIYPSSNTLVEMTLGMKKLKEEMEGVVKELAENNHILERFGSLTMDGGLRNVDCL

SMILES | IC50 [nM]
N#Cc1cc(-c2ncnc(Nc3ccc(C4CCNCC4)cc3)n2)ccc1O[C@H]1CCCC[C@H]1F (racemic) [Example 292, rac-2-(((1S,2R)-2-fluorocyclohexyl)oxy)-5-(4-((4-(piperidin-4-yl)phenyl)amino)-1,3,5-triazin-2-yl)benzonitrile] | 6
C[C@H](O)C(=O)N1CC[C@@H](Oc2ccc(-c3ncnc(Nc4ccc(N5CCN(C6COC6)CC5)cc4)n3)cc2C#N)C1 [Example 88, 2-(((R)-1-((S)-2-hydroxypropanoyl)pyrrolidin-3-yl)oxy)-5-(4-((4-(4-(oxetan-3-yl)piperazin-1-yl)phenyl)amino)-1,3,5-triazin-2-yl)benzonitrile] | 26
C[C@@H](O)C(=O)N1CC[C@@H](Oc2ccc(-c3ncnc(Nc4ccc(N5CCN(C6COC6)CC5)cc4)n3)cc2C#N)C1 [Example 91, 2-(((R)-1-((R)-2-hydroxypropanoyl)pyrrolidin-3-yl)oxy)-5-(4-((4-(4-(oxetan-3-yl)piperazin-1-yl)phenyl)amino)-1,3,5-triazin-2-yl)benzonitrile] | 145
N#Cc1cc(-c2ncnc(Nc3ccc(N4CCN(C5COC5)CC4)cc3)n2)ccc1O[C@@H]1CN(C(=O)CO)C[C@@H]1F [Example 101, 2-(((3R,4S)-4-fluoro-1-(2-hydroxyacetyl)pyrrolidin-3-yl)oxy)-5-(4-((4-(4-(oxetan-3-yl)piperazin-1-yl)phenyl)amino)-1,3,5-triazin-2-yl)benzonitrile] | 14
N#Cc1cc(-c2ncnc(Nc3ccc4c(c3)OC(F)(F)O4)n2)ccc1OC1CCOCC1 [Example 275, 5-(4-((2,2-difluorobenzo[d][1,3]dioxol-5-yl)amino)-1,3,5-triazin-2-yl)-2-((tetrahydro-2H-pyran-4-yl)oxy)benzonitrile] | 115
N#Cc1cc(-c2ncnc(Nc3ccc(N4CCN(C5CCOCC5)CC4)cc3)n2)ccc1O[C@H]1CCN(C(=O)CO)C[C@H]1F [Example 306, 2-(((3R,4S)-3-fluoro-1-(2-hydroxyacetyl)piperidin-4-yl)oxy)-5-(4-((4-(4-(tetrahydro-2H-pyran-4-yl)piperazin-1-yl)phenyl)amino)-1,3,5-triazin-2-yl)benzonitrile] | 2
C[C@H](O)C(=O)N1CC[C@H](Oc2ccc(-c3ncnc(Nc4ccc(C5CCN(C6COC6)CC5)cc4)n3)cc2C#N)[C@H](F)C1 [Example 311, 2-(((3R,4S)-3-fluoro-1-((S)-2-hydroxypropanoyl)piperidin-4-yl)oxy)-5-(4-((4-(1-(oxetan-3-yl)piperidin-4-yl)phenyl)amino)-1,3,5-triazin-2-yl)benzonitrile] | 3
